Km data for one compound are collected here from PMC11243177, “The Discovery, Molecular Cloning, and Characterization of Dextransucrase LmDexA and Its Active Truncated Mutant from Leuconostoc mesenteroides NN710” (Molecules, 2024).

The assay concerns the target T1, ΔN190LmDexA (Leuconostoc mesenteroides, UniProt Q03VD8).
T1 construct: gene LEUM_1747; N-terminal 190 residues removed (signal peptide and variable region); 1372 aa, theoretical 150 kDa; borders 191-1562 derived from printed lengths
Nature of the assay: DNS assay of released reducing sugar (fructose), Michaelis-Menten fit. As to conditions: pH 5.6, 30 °C, 20 mM sodium acetate, 3-300 mM sucrose, 30 min. The format is biochemical.

SMILES strings stand for the structures.

T1 sequence (Q03VD8 entry or part of it, stated change not applied): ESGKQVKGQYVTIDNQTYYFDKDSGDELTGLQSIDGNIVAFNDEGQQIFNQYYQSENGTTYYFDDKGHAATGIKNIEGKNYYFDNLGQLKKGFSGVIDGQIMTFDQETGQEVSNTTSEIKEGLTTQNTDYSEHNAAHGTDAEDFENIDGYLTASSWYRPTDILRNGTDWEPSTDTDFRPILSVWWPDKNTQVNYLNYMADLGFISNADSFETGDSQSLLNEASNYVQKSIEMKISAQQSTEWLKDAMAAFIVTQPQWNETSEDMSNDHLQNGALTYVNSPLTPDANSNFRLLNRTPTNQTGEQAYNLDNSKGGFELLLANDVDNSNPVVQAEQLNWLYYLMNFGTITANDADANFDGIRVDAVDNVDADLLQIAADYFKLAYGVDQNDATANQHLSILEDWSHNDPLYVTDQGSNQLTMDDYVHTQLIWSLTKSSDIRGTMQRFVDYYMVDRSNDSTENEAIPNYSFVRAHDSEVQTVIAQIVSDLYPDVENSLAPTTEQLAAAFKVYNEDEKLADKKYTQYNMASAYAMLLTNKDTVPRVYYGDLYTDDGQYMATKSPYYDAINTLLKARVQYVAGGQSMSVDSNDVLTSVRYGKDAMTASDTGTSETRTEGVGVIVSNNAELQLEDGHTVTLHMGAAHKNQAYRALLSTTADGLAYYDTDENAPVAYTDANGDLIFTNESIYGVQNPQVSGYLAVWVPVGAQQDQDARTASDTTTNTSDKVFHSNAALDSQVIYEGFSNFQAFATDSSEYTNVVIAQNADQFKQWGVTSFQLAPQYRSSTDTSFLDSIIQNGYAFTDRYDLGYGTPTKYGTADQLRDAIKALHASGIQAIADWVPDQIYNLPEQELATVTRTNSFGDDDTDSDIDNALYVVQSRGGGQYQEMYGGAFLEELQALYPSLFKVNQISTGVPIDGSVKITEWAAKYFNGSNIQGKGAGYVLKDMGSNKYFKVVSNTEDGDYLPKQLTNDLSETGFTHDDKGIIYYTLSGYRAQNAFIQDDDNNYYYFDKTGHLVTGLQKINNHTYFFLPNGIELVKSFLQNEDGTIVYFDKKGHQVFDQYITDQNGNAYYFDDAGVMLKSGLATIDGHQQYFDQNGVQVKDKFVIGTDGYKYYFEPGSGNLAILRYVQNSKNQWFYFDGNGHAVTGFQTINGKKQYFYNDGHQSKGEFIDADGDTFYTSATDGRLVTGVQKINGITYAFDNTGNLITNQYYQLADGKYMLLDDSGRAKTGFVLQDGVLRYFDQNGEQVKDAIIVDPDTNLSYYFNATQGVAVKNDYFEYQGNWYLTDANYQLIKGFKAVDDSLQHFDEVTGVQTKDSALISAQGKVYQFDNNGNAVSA

Turning to `OC[C@H]1O[C@@](CO)(O[C@H]2O[C@H](CO)[C@@H](O)[C@H](O)[C@H]2O)[C@@H](O)[C@@H]1O` [sucrose], the Km worked out at 13.7 mM.

Broadly, the Km is the substrate concentration at which the rate is half of its maximum.
